{
  "source": "patent US20150005347A1",
  "about": "“NITROGEN-CONTAINING HETEROCYCLIC DERIVATIVE HAVING 2-IMINO GROUP AND PEST CONTROL AGENT INCLUDING THE SAME” (MEIJI SEIKA PHARMA CO., LTD., priority 2012, published 2015)",
  "assay_type_in_all_cases": "in vivo",
  "key": {"Musca domestica": {"tested_on": "Musca domestica", "assay": "Pest control test of Musca domestica adults, sucrose pledget", "conditions": "50 ppm in 40% sucrose liquid; four days after release", "protocol": "Test Example 21 Pest Control Test of Musca domestica\nA drug solution of the compound of the present invention, which had been adjusted to be 50 ppm with a 40% sucrose liquid, was adsorbed on a pledget, and the pledget was put into a vial. Two adults reared indoors were released thereto. Thereafter, the adults were left to stand indoors at room temperature of 25° C. […] When two adults were all agonized in death, it was judged to be effective."}, "[1]": {"tested_on": "imidacloprid susceptible populations of Nilaparvata lugens", "assay": "Soil irrigation test, imidacloprid susceptible populations of Nilaparvata lugens", "summary_of_the_method": "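Potted rice seedlings soil-irrigated with compound in 10% acetone water at set concentrations; larvae held at 25 °C, 16 h light/8 h dark. Mortality % = dead/(dead + survivors) ×100, duplicate. Susceptible population: Kagoshima-collected, long-term lab-reared.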"}, "Coptotermes formosanus": {"tested_on": "Coptotermes formosanus", "assay": "Pest control test of Coptotermes formosanus, treated filter paper", "conditions": "168 h, read-out: mortality of insects", "protocol": "Test Example 27 Pest Control Test of Coptotermes formosanus\nA filter paper was allowed to be soaked in a drug solution of the compound of the present invention at a predetermined concentration, which had been prepared with acetone. The filter paper was sufficiently blow-dried and then put into a plastic petri dish, and 5 insects of Coptotermes formosanus (worker ant) were each released thereto. Thereafter, the insects were left to stand in a thermostatic chamber (16 hours of light period-8 hours of dark period) at 25° C. […] The test was performed in duplicate.\nMortality of insects(%)={number of dead insects/(number of survived insects+number of dead insects)}×100"}, "[2]": {"tested_on": "Nilaparvata lugens exhibiting drug resistance to imidacloprid", "conditions": "soil irrigation", "summary_of_the_method": "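Imidacloprid-resistant Nilaparvata lugens collected outdoors in Kumamoto (2007); an indoor-reared Kagoshima population served as the susceptible strain. Potted rice seedlings soil-drenched with compound in 10% acetone water at set concentrations; larvae held at 25° C, 16 h light/8 h dark. Mortality (%) = dead/(survived + dead) × 100, tested in duplicate.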"}, "[3]": {"tested_on": "Frankliniella occidentalis", "assay": "Pest control test of Frankliniella occidentalis, kidney bean leaf disk foliar spray", "conditions": "Frankliniella occidentalis, foliar", "summary_of_the_method": "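Kidney bean leaf disks (2.8 cm) sprayed with compound in 50% acetone water with 0.05% Tween20, air-dried, then infested with first instar larvae. Held at 25° C, 16 h light/8 h dark; larval mortality (%) calculated from dead versus total larvae, in duplicate.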"}, "[4]": {"tested_on": "Laodelphax striatella exhibiting drug resistance to fipronil", "assay": "Foliar spray test, Laodelphax striatella exhibiting drug resistance to fipronil", "conditions": "Laodelphax striatellus, 144 h, read-out: mortality of larvae", "protocol": "Test Example 15 Pest Control Test of Laodelphax striatella\nA drug solution of the compound of the present invention at a predetermined concentration, which had been prepared so as to be a 50% acetone water (0.05% Tween20 available), was foliar sprayed to a rice seedling in pot culture. […] Thereafter, the larvae were left to stand in a thermostatic chamber (16 hours of light period-8 hours of dark period) at 25° C. […] Test in duplicate.\n(§1) Mortality of larvae(%)={number of dead larvae/(number of survived larvae+number of dead larvae)}×100\nFurther, for the origin of test pests, insects of Laodelphax striatella collected outdoors within the Kumamoto prefecture in 2006 were used."}, "Oulema oryzae": {"tested_on": "Oulema oryzae", "assay": "Pest control test of Oulema oryzae, soil irrigation treatment", "conditions": "0.05 mg/seedling, three days after release", "protocol": "Test Example 13 Pest Control Test of Oulema oryzae\n(§2) A rice seedling in pot culture was subjected to soil irrigation treatment with a drug solution of the compound of the present invention at a predetermined concentration, which had been prepared so as to be a 10% acetone water. Three days after the treatment, two second instar larvae of Oulema oryzae were each released thereto. Thereafter, the larvae were left to stand in a thermostatic chamber (16 hours of light period-8 hours of dark period) at 25° C. […] The test was performed in duplicate.\nas §1"}, "Callosobruchus chinensis": {"tested_on": "Callosobruchus chinensis", "assay": "Pest control test against Callosobruchus chinensis, topical treatment of adults", "protocol": "Test Example 5 Pest control test against Callosobruchus chinensis\n1 μL (/head) of a drug solution of the compound of the present invention prepared at a predetermined concentration with acetone was treated to the back of Callosobruchus chinensis adults. After the drug treatment, the adults were transferred to a plastic cup and left to stand in a thermostatic chamber at 25° C.\nRate of agonized adults(%)={number of dead adults/(number of survived adults+number of dead adults)}×100"}, "Aulacophora femoralis": {"tested_on": "Aulacophora femoralis", "assay": "Pest control test of Aulacophora femoralis, cucumber leaf disk foliar spray", "protocol": "Test Example 4 Pest Control Test of Aulacophora femoralis\nA leaf disk having a diameter of 2.8 cm was cut out from a cucumber in pot culture, and a drug solution of the compound of the present invention at a predetermined concentration, which had been prepared so as to be a 50% acetone water (0.05% Tween20 available), was sprayed to the leaf disk. After an air drying process, adults were released thereto. Thereafter, the adults were left to stand in a thermostatic chamber (16 hours of light period-8 hours of dark period) at 25° C. […] Test in duplicate.\nMortality of adults(%)={number of dead adults/(number of survived adults+number of dead adults)}×100"}, "Nilaparvata lugens": {"tested_on": "Nilaparvata lugens", "assay": "Pest control test of Nilaparvata lugens, soil irrigation treatment", "conditions": "soil irrigation treatment", "protocol": "Test Example 12 Pest Control Test of Nilaparvata lugens\nas §2, with “ten” for “two”, “Nilaparvata lugens” for “Oulema oryzae”\nas §1"}, "[5]": {"conditions": "72 h, read-out: mortality of larvae"}, "[6]": {"conditions": "read-out: % Mortality, Test Example7 Frankliniella occidentalis"}, "[7]": {"conditions": "read-out: % Mortality, Test Example4 Aulacophora femoralis"}},
  "note": "Like-named read-outs stand apart in the source and are kept apart here.",
  "data": [
    {"smiles": "FC(F)(F)C(=S)/N=c1\\ccccn1Cc1ccc(Cl)nc1", "note": "[Compound 1-20, N-[1-((6-chloropyridin-3-yl)methyl)pyridin-2(1H)-ylidene]-2,2,2-trifluoroethanethioamide]", "values": [
      {"measurement": "activity against adults (effective when two adults were all agonized in death)", "setting": "Musca domestica", "value": "all the adults are agonized in death"},
      {"measurement": "Insecticidal effects against Nilaparvata lugens (mortality of larvae %), Susceptible populations three days after the treatment", "setting": "[1]; Rate 0.01 mg/pot", "value": 95, "unit": "%"},
      {"measurement": "Insecticidal effects against Nilaparvata lugens (mortality of larvae %), Susceptible populations three days after the treatment", "setting": "[1]; Rate 0.05 mg/pot", "value": 96, "unit": "%"},
      {"measurement": "mortality at 0.5 µg/cm2", "setting": "Coptotermes formosanus", "value": 100, "unit": "%"},
      {"measurement": "insecticidal effects against drug resistant Nilaparvata lugens", "setting": "[2]; imidacloprid-resistant", "value": "high insecticidal effects"},
      {"measurement": "mortality of larvae against drug resistant populations compared with susceptible populations of Nilaparvata lugens", "setting": "[2]; imidacloprid-resistant vs susceptible", "value": "equivalent mortality of larvae"},
      {"measurement": "mortality at 100 ppm", "setting": "[3]; [5]", "value": "≥ 80", "unit": "%"},
      {"measurement": "mortality at 500 ppm", "setting": "[3]; [5]", "value": "≥ 80", "unit": "%"},
      {"measurement": "mortality at 20 ppm", "setting": "[3]; [6]", "value": 50, "unit": "%"},
      {"measurement": "mortality at 100 ppm", "setting": "[3]; [6]", "value": 80, "unit": "%"},
      {"measurement": "mortality at 1.25 ppm", "setting": "[4]", "value": "≥ 80", "unit": "%"},
      {"measurement": "mortality of larvae", "setting": "Oulema oryzae", "value": "≥ 80", "unit": "%"},
      {"measurement": "mortality of adults", "setting": "Callosobruchus chinensis; 0.1 μg/head on the back of adults, twenty four hours after treatment", "value": "≥ 80", "unit": "%"},
      {"measurement": "% Mortality, Test Example5 Callosobruchus chinensis", "setting": "Callosobruchus chinensis; Concentration 10 (ppm)", "value": 100, "unit": "%"},
      {"measurement": "% Mortality, Test Example5 Callosobruchus chinensis", "setting": "Callosobruchus chinensis; Concentration 100 (ppm)", "value": 100, "unit": "%"},
      {"measurement": "mortality at 10 ppm", "setting": "Aulacophora femoralis; 72 h, read-out: mortality of adults", "value": "≥ 80", "unit": "%"},
      {"measurement": "mortality at 1.25 ppm", "setting": "Aulacophora femoralis; [7]", "value": 100, "unit": "%"},
      {"measurement": "mortality at 5 ppm", "setting": "Aulacophora femoralis; [7]", "value": 100, "unit": "%"},
      {"measurement": "% Mortality, Test Example 12 Nilaparvata lugens", "setting": "Nilaparvata lugens; 0.005 mg/pot", "value": 80, "unit": "%"},
      {"measurement": "% Mortality, Test Example 12 Nilaparvata lugens", "setting": "Nilaparvata lugens; 0.01 mg/pot", "value": 85, "unit": "%"},
      {"measurement": "% Mortality, Test Example 12 Nilaparvata lugens", "setting": "Nilaparvata lugens; 0.05 mg/pot", "value": 100, "unit": "%"}
    ]}
  ]
}
